Holding throughout (format): biochemical
For experiment [1], the target named is METTL3/METTL14 (Homo sapiens, UniProt Q86U44). Nature of the experiment: METTL3-14 standard enzyme assay (3H-SAM flashplate scintillation). The conditions noted are these: METTL3/METTL14 2.5 nM, RNA 100 nM, 3H-SAM 100 nM, 30 min. As for the experimental part: METTL3-14 Standard Enzyme Assay
(§1) Assays were performed in a 25 μl-volume in 384-well V-bottom polypropylene microplates (Greiner Bio-One, cat. No. 781280) at ambient temperature. Optimized 1× assay buffer was 20 mM HEPES pH 7.5, 50 mM KCl, 250 μM MgCl2, 1 mM DTT, 0.01% Tween, 0.01% BSG, 0.004 U/μl RNAseOUT (cat. No. 10777019, ThermoFisher Scientific, Waltham, Mass.). For compound screening METTL3/METTL14 (final concentration, f.c.=2.5 nM) was added using a Multidrop Combi (ThermoFisher Scientific, Waltham, Mass.) and preincubated for 5 min. Reactions were started by adding 3′ biotinylated RNA (UCUGGACUAAA-biotin) (f.c.=100 nM) and 3H-SAM (f.c.=100 nM) substrates. Reactions proceeded for 30 minutes and were quenched with excess non-radioactive SAM (f.c.=15 μM). The reactions were then transferred to streptavidin-coated flashplates and incubated for 2 hours at 25° C. Following two washing cycles with 0.1% Tween-20, the plates were sealed and read on a TopCount (PerkinElmer, Waltham, Mass.) plate-based scintillation counter. For determination of kinetic parameters, reaction times were optimized so that measurements were taken during the initial velocity phase of the reaction.

Experiment [2] concerns the target PRMT5-MEP50 (Homo sapiens, UniProt O14744). Nature of the experiment: PRMT5 assay (3H-SAM flashplate scintillation). The settings on record: PRMT5-MEP50 2.5 nM, histone H4 peptide 100 nM, 3H-SAM 250 nM, 60 min. As for the experimental part:
Assays were performed in a 25 μl-volume in 384-well V-bottom polypropylene microplates (Greiner Bio-One, cat. No. 781280) at ambient temperature. Optimized 1× assay buffer was 20 mM Tris-HCl pH 8.0, 1 mM DTT, […]. For compound screening PRMT5-MEP50 (final concentration, f.c.=2.5 nM) was added using a Multidrop Combi (ThermoFisher Scientific, Waltham, Mass.) and preincubated for 5 min. Reactions were started by adding 3′ biotinylated histone H4 peptide acetylated on serine 1 (Ac-[…]-Biotin) (f.c.=100 nM) and 3H-SAM (f.c.=250 nM) substrates. Reactions proceeded for 60 minutes and were quenched with excess non-radioactive SAM (f.c.=15 μM). The reactions were then transferred to streptavidin-coated flashplates and incubated for 2 hours at 25° C. Following two washing cycles with 0.1% Tween-20, the plates were sealed and read on a TopCount (PerkinElmer, Waltham, Mass.) plate-based scintillation counter. For determination of kinetic parameters, reaction times were optimized so that measurements were taken during the initial velocity phase of the reaction.

Experiment [3] addresses T1, METTL16 (Homo sapiens, UniProt Q86W50).
T1 sequence (Q86W50 1-562): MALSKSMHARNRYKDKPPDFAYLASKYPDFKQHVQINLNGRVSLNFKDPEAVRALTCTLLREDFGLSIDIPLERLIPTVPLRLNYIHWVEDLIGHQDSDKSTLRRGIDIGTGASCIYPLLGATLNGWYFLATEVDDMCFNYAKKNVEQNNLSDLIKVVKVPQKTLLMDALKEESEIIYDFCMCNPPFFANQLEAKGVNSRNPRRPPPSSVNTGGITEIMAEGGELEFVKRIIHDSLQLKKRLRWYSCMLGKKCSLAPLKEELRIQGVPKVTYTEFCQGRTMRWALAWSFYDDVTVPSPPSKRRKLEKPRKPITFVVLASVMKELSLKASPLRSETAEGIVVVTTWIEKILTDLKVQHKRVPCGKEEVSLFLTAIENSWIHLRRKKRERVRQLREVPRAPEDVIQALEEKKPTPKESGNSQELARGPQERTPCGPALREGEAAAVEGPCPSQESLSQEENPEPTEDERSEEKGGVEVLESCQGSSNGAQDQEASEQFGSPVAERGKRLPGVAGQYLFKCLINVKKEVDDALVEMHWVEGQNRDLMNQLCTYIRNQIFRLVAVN
Nature of the experiment: METTL16 assay (3H-SAM flashplate scintillation). The settings on record: METTL16 100 nM, RNA 50 nM, 3H-SAM 200 nM, SAM 800 nM, 20 min. How it is done:
Assays were performed in a 25 μl-volume in 384-well V-bottom polypropylene microplates (Greiner Bio-One, cat. No. 781280) at ambient temperature. Optimized 1× assay buffer was 20 mM HEPES pH 7.5, 50 mM KCl, 1 mM DTT, 0.01% Tween, 0.01% BSG, 0.004 U/μl RNAseOUT (cat. No. 10777019, ThermoFisher Scientific, Waltham, Mass.). For compound screening METTL16 (final concentration, f.c.=100 nM) was added using a Multidrop Combi (ThermoFisher Scientific, Waltham, Mass.) and preincubated for 5 min. Reactions were started by adding 3′ biotinylated RNA ([…]-biotin) (f.c.=50 nM), 3H-SAM (f.c.=200 nM) and non-radiolabeled SAM (f.c.=800 nM) substrates. Reactions proceeded for 20 minutes and were quenched with excess non-radioactive SAM (f.c.=100 μM). The reactions were then transferred to streptavidin-coated flashplates and incubated for 2 hours at 25° C. Following two washing cycles with 0.1% Tween-20, the plates were sealed and read on a TopCount (PerkinElmer, Waltham, Mass.) plate-based scintillation counter. For determination of kinetic parameters, reaction times were optimized so that measurements were taken during the initial velocity phase of the reaction.

Experiment [4] concerns the target METTL1/WDR4 (Homo sapiens, UniProt Q9UBP6). Description: METTL1 assay (3H-SAM flashplate scintillation). How it is done: as §1, with “METTL1/WDR4” for “METTL3/METTL14”, “f.c.=6.25” for “f.c.=2.5”, “([…]-biotin) (f.c.=25” for “(UCUGGACUAAA-biotin) (f.c.=100”, “(f.c.=60” for “(f.c.=100”, “20” for “30”
The mark [5] stands for this setting: METTL1/WDR4 6.25 nM, RNA 25 nM, 3H-SAM 60 nM, 20 min, read-out: METTL1 IC50.

Structures are written as SMILES. Structures can show the parent of a compound that is named as a salt. Where two headings read alike, the source gives them in different places. Some results are limits rather than exact numbers.

Sequence of METTL1/WDR4 (Q9UBP6 whole entry, species assumed): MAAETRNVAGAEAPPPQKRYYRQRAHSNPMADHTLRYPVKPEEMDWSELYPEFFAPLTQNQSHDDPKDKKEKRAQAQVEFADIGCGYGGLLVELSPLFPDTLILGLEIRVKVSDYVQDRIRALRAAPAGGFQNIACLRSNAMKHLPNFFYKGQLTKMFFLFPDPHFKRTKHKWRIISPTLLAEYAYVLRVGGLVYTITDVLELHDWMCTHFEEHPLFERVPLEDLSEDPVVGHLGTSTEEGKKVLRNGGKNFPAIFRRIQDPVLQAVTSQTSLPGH
Sequence of METTL1/WDR4 (P57081 whole entry partner, species assumed): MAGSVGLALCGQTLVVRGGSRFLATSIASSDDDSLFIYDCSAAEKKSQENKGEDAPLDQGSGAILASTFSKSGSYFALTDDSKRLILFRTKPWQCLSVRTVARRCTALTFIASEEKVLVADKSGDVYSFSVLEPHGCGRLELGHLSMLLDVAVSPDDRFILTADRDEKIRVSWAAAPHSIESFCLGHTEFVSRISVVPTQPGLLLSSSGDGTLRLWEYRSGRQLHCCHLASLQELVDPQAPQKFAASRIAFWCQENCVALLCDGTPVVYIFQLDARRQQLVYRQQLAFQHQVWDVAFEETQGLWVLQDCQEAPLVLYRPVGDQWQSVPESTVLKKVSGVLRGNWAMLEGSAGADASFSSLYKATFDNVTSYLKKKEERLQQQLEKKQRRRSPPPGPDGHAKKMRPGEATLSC
Sequence of METTL3/METTL14 (Q86U44 whole entry, species assumed): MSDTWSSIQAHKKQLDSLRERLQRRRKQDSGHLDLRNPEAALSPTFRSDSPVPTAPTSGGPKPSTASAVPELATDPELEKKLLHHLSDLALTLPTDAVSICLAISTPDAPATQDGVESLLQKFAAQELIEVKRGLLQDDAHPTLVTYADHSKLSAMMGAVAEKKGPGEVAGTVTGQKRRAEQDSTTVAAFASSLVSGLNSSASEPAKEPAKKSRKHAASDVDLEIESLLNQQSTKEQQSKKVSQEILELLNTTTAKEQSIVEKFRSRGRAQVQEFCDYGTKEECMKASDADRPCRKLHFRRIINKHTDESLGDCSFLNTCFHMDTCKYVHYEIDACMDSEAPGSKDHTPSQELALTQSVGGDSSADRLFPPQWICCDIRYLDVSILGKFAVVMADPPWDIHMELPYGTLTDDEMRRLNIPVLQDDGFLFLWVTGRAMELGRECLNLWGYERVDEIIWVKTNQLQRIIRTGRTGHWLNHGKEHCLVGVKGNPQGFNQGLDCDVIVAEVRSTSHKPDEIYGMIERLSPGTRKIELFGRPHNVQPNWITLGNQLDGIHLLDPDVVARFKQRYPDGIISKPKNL
Sequence of METTL3/METTL14 (Q9HCE5 whole entry partner, species assumed): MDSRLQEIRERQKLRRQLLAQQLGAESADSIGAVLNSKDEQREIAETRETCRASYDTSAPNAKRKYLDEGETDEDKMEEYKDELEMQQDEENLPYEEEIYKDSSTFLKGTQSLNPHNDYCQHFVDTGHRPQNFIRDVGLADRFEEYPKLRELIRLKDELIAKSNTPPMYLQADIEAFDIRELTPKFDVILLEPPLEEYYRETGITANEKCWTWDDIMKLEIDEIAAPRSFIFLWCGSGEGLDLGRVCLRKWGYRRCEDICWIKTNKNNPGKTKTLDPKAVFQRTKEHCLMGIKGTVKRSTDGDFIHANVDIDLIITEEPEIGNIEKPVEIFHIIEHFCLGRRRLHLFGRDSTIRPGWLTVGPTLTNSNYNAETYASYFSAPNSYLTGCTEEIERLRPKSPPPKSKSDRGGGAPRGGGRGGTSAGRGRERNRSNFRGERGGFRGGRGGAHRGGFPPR
Sequence of PRMT5-MEP50 (O14744 whole entry): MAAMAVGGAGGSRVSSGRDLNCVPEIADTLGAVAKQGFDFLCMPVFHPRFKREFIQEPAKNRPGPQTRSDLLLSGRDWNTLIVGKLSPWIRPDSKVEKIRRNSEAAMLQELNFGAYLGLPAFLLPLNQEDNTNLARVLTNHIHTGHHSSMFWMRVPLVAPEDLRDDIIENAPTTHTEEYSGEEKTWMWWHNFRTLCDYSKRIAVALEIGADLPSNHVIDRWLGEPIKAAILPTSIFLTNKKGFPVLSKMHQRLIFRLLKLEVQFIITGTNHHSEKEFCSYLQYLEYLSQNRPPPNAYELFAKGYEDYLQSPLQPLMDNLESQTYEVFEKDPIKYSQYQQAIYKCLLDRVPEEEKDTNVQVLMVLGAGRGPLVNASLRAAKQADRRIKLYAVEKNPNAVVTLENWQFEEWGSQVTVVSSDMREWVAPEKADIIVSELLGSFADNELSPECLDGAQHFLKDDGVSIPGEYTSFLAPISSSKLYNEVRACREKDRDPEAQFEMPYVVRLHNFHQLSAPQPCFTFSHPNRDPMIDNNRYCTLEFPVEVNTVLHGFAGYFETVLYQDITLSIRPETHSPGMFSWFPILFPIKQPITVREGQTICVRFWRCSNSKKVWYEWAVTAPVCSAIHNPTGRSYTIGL
Sequence of PRMT5-MEP50 (Q9BQA1 whole entry partner): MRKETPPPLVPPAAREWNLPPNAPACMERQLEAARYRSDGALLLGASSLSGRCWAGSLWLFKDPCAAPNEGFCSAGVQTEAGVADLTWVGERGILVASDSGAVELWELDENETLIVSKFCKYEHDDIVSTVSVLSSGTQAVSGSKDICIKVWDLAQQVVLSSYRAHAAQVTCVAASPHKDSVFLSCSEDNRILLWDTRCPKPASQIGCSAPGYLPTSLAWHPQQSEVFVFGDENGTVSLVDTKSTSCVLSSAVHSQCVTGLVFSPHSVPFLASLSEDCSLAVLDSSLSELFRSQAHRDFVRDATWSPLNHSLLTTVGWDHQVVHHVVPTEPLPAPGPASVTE

The term IC50 denotes the concentration that inhibits the measured activity by half. As to `CC(C)Nc1ccc2ccc(OCc3cncc(-n4cc(Cl)c5c(N)ncnc54)c3)cc2n1` [Compound I-39], the 50% inhibitory concentration (IC50) in experiment [1] was 0.01 to 0.1 µM; in experiment [2] it was > 1 µM; in experiment [3], > 1 µM.

For `CNc1ccc2ccc(OCc3cncc(-n4cc(CCN(C)C)c5c(N)ncnc54)c3)cc2n1` [Compound I-27], the concentration for half-maximal inhibition (IC50) in experiment [1] is 0.01 to 0.1 µM; in experiment [2], > 1 µM; in experiment [3], > 1 µM.

As for `CNc1ccc2ccc(OCc3cncc(-n4ccc5c(N)nc(NC)nc54)c3)cc2n1` [Compound I-50], the IC50 in experiment [1], in experiment [2] and in experiment [3] was > 1 µM in each case.

Turning to `Nc1ncnc2c1c(Cl)cn2-c1cncc(COc2ccc3ccc(N4CCCC4)nc3c2)c1` [Compound I-40], the IC50 is 0.01 to 0.1 µM in experiment [1], > 1 µM in experiment [2] and > 1 µM in experiment [3].

As to `Nc1ncnc2c1ccn2-c1cncc(COc2ccc3ccc(N4CCCC4)nc3c2)c1` [Compound I-26], the results for the concentration for half-maximal inhibition (IC50) in experiment [1], in experiment [2] and in experiment [3] were 0.01 to 0.1 µM, > 1 µM and > 1 µM, respectively.

On to `CNc1ccc2ccc(CCc3cncc(-n4cc(Cl)c5c(N)ncnc54)c3)cc2n1` [Compound I-51], for which the concentration for half-maximal inhibition (IC50) in experiment [1] was 0.01 to 0.1 µM; in experiment [2], > 1 µM; in experiment [3], > 1 µM.

For `CNc1ccc2ccc(OCc3nc(-n4ccc5c(N)ncnc54)cs3)cc2n1` [Compound I-19], the half-maximal inhibitory concentration (IC50) in experiment [1] was 0.01 to 0.1 µM; in experiment [2] it was > 1 µM; in experiment [4] it was > 1 µM.

Take `C=CC(=O)N(CCC(=O)O)c1nc(N)c2ccn(-c3cncc(COc4ccc5ccc(NC)nc5c4)c3)c2n1` [Compound I-41]: the 50% inhibitory concentration (IC50) in experiment [1], in experiment [2] and in experiment [3] was > 1 µM each time.

For the compound `Nc1ncnc2c1c(Cl)cn2-c1csc(COc2ccc3ccc(N4CCCC4)nc3c2)n1` [Compound I-23, 5-chloro-7-(2-(((2-(pyrrolidin-1-yl)quinolin-7-yl)oxy)methyl)thiazol-4-yl)-7H-pyrrolo[2,3-d]pyrimidin-4-amine hydrochloride], the IC50 in experiment [1], in experiment [2] and in experiment [4] was > 1 µM in each case.

In the case of `CNc1ccc2ccc(OCc3cncc(-n4ccc5c(C)ncnc54)c3)cc2n1` [Compound I-44], the half-inhibitory concentration (IC50) in experiment [1] is 0.01 to 0.1 µM; in experiment [2], > 1 µM; in experiment [3] it was > 1 µM.

`Nc1ncnc2c1c(C1CCCC1)cn2-c1cncc(COc2ccc3ccc(N4CCC4)nc3c2)c1` [Compound I-94]: the values for the 50% inhibitory concentration (IC50) in experiment [1], in experiment [2] and in experiment [4] (setting [5]) were < 0.01 µM, > 1 µM and > 1 µM, respectively.

For `CCCC(=O)c1cn(-c2cncc(COc3ccc4ccc(NC)nc4c3)c2)c2ncnc(N)c12` [Compound I-96], the IC50 was 0.01 to 0.1 µM in experiment [1], > 1 µM in experiment [2] and > 1 µM in experiment [4] (setting [5]).

Turning to `CNc1ccc2ccc(OCc3cncc(-n4cc(C5CCCC5)c5cncnc54)c3)cc2n1` [Compound I-57], the IC50 in experiment [1] was 0.1 to 1 µM; in experiment [2], > 1 µM; in experiment [3] it was > 1 µM.

As for `CNc1ccc2ccc(OCc3ncc(-n4cc(Cl)c5c(N)ncnc54)s3)cc2n1` [Compound I-24], the IC50 in experiment [1], in experiment [2] and in experiment [4] was > 1 µM each time.

As to `Cc1cc(NCCN(C)CCCc2ccccc2)c2ccc(OCc3cncc(-n4ccc5c(N)ncnc54)c3)cc2n1` [Compound I-98], the IC50 is 0.01 to 0.1 µM in experiment [1], > 1 µM in experiment [2] and > 1 µM in experiment [4] (setting [5]).

Regarding `CN(Cc1cncc(-n2cc(-c3ccn(C)n3)c3c(N)ncnc32)c1)CC1CC1` [Compound I-100], the IC50 in experiment [1], in experiment [2] and in experiment [4] (setting [5]) was > 1 µM throughout.

In the case of `CCc1cc(NCCN(C)C)c2ccc(OCc3cncc(-n4ccc5c(N)ncnc54)n3)cc2n1` [Compound I-89], the IC50 in experiment [1] was < 0.01 µM; in experiment [2], > 1 µM; in experiment [4] (setting [5]), > 1 µM.

As for `CCc1nc(N)c2ccn(-c3cncc(COc4ccc5ccc(NC)nc5c4)c3)c2n1` [Compound I-8], the IC50 is < 0.01 µM in experiment [1], > 1 µM in experiment [2] and > 1 µM in experiment [4] (setting [5]).

Regarding `CNc1ccc2ccc(OCc3cncc(-n4cc(C5CCC(F)(F)CC5)c5c(N)ncnc54)c3)cc2n1` [Compound I-3], the values for the IC50 in experiment [1], in experiment [2] and in experiment [4] (setting [5]) were 0.01 to 0.1 µM, > 1 µM and > 1 µM, respectively.

For the compound `CNc1ccc2ccc(COc3cncc(-n4ccc5c(N)ncnc54)c3)cc2n1` [Compound I-22, 7-{[(5-{4-amino-7H-pyrrolo[2,3-d]pyrimidin-7-yl}pyridin-3-yl)oxy]methyl}-N-methylquinolin-2-amine], the IC50 was 0.01 to 0.1 µM in experiment [1], > 1 µM in experiment [2] and > 1 µM in experiment [4] (setting [5]).

In the case of `Nc1ccc2ccc(OCc3cncc(-n4ccc5c(N)ncnc54)c3)cc2n1` [Compound I-240], the 50% inhibitory concentration (IC50) in experiment [1] was 0.01 to 0.1 µM; in experiment [2] it was > 1 µM; in experiment [4] (setting [5]), > 1 µM.

As for `CNc1ccc2ccc(OCc3cc(-n4cc(Cl)c5c(N)ncnc54)cnc3NC)cc2n1` [Compound I-13], the IC50 in experiment [1] was 0.01 to 0.1 µM; in experiment [2], > 1 µM; in experiment [4] (setting [5]) it was > 1 µM.

On to `CNc1ccc2ccc(OCc3cc(C(N)=O)cc(-n4cc(Cl)c5c(N)ncnc54)c3)cc2n1` [Compound I-21], for which the IC50 in experiment [1] was 0.1 to 1 µM; in experiment [2], > 1 µM; in experiment [4] (setting [5]), > 1 µM.

(Values after patent US20220372040A1, “METTL3 MODULATORS” (Accent Therapeutics, Inc., priority 2020, published 2022).)
